Bounds are passed on as bounds.

The target in one assay is T1, HDAC6 (Homo sapiens, UniProt Q9UBN7).
T1 construct: TwinStrep-FLAG-HALO (N, cleaved yes); made in house; host or cells: HEK293/T17
T1 sequence (Q9UBN7 1-1215): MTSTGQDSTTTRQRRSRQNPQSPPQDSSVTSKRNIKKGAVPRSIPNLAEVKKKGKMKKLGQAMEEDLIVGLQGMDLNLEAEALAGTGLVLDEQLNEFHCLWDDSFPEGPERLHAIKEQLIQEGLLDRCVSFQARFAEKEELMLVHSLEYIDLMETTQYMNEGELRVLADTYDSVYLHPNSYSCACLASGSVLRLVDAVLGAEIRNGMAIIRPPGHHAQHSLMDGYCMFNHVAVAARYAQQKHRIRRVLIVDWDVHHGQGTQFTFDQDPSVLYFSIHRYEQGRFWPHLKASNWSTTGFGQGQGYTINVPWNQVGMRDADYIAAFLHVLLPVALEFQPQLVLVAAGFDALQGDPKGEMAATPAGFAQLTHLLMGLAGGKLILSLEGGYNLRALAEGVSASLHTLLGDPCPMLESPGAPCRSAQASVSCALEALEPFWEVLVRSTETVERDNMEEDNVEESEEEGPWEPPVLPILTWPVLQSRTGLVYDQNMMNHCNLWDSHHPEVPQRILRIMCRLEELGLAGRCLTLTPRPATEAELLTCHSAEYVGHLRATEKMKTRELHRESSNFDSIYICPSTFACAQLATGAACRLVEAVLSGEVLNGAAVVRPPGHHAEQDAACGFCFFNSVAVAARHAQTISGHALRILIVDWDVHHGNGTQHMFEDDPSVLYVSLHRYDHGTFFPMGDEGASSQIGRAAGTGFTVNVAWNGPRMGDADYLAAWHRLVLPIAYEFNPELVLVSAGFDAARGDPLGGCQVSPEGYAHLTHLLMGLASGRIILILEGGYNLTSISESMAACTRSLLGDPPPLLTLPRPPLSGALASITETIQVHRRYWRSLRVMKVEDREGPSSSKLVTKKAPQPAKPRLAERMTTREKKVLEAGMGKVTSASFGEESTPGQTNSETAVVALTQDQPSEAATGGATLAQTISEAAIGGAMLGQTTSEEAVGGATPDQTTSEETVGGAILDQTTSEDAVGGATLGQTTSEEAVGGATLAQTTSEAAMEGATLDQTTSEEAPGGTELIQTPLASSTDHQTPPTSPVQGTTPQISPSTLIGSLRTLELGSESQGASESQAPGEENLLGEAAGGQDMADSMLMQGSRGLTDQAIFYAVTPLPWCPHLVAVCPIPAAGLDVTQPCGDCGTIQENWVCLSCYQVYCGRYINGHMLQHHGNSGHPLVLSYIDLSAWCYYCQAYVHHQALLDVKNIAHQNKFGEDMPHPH
Kind of assay: Fluorometric HDAC inhibition assay, HDAC6. It is filed as biochemical. Particulars: purified human protein; Ac-Gly-Ala-[Lys-Ac]-AMC substrate 10 μM; 15 min preincubation. As for the experimental part:
Large-scale expression of recombinant human HDACs was carried out as described previously.[32],[37] Briefly, HEK293/T17 cells were transiently transfected with expression pMM222 plasmids comprising N-terminally tagged (TwinStrep-FLAG-HALO tag; Figure S1) HDAC genes using linear poly(ethyleneimine) (PEI, Polysciences Inc.). Cells were harvested three days post-transfection, and cell pellets were resuspended in the lysis buffer (100 mM Tris-HCl, 10 mM NaCl, 5 mM KCl, 2 mM MgCl2, and 10% glycerol at pH 8.0). Cells were disrupted by sonication, cell lysates were cleared by centrifugation, and soluble fusion proteins were first purified by Streptactin affinity chromatography (IBA). For all HDACs but HDACs 1, 10, and 11, the N-terminal tag was cleaved off overnight by the addition of TEV protease (10:1 HDAC/TEV ratio). Size-exclusion chromatography on a Superose 6 column (GE Healthcare Bio-Sciences; running buffer 30 mM HEPES, 140 mM NaCl, 10 mM KCl, 3% glycerol, and 0.25 mM TCEP) was used as the final purification step for all HDAC constructs.
(§1) Optimized fluorometric assays were used to determine inhibition constants of studied compounds against individual HDAC isoforms as described previously.[32] Briefly, reactions were performed in the activity buffer comprising 50 mM HEPES, 140 mM NaCl, and 10 mM KCl at pH 7.4 supplemented with 1 mg mL^–1 bovine serum albumin (BSA), 1 mM tris(2-carboxyethyl)phosphine (TCEP), 10 μM substrates, and optimized concentrations of HDACs. The Ac-Gly-Ala-[Lys-Ac]-7-amino-methylcoumarylamide (AMC) substrate was used to profile HDACs 1, 2, 3, and 6; Boc-[Lys-TFA]-7-amino-methylcoumarylamide was used for HDACs 4, 5, 7, 8, and 9 (both substrates: Bachem); fluorescein-labeled N8-acetylspermidine was used for HDAC10;[32] and an internally quenched TNFα-derived peptide derivative was used for HDAC11.[39] Deacetylation reactions were monitored either by high-performance liquid chromatography (HPLC) (HDAC10) or by quantification of released AMC (λex/λem = 365/440 nm) using a CLARIOstar plate reader (BMG Labtech GmbH).

The target of the next assay is T2, zHDAC6 (Y745F) (Danio rerio, UniProt F8W4B7, Y745F).
T2 construct: Danio rerio HDAC6 (amino acids 440–798; zHDAC6); His (N, cleaved yes); MBP (N, cleaved yes); made in house; host or cells: RIPL Escherichia coli
T2 sequence (F8W4B7 440-798 Y745F): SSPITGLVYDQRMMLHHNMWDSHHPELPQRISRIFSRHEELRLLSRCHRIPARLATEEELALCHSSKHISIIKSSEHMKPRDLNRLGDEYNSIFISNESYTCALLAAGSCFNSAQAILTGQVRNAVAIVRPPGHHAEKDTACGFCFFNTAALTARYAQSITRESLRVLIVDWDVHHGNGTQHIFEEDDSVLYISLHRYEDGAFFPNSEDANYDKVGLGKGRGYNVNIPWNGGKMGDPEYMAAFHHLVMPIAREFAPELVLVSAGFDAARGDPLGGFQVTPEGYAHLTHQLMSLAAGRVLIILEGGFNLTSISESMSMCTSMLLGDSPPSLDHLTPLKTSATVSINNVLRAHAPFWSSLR
Kind of assay: Inhibition assay, zebrafish HDAC6 catalytic DD2 domain, Y745F mutant. It is filed as biochemical. On the procedure:
The second catalytic domain of Danio rerio HDAC6 (amino acids 440–798; zHDAC6) was expressed in RIPL Escherichia coli as described previously using the pEC566-zHDAC6 expression vector.[16],[38] Briefly, bacteria were incubated at 37 °C with shaking (250 rpm) until the optical density reached an OD600 = 0.5. Then, the culture was cooled to 18 °C for 1 h, and recombinant protein expression was induced by the addition of 75 μM isopropyl β-D-1-thiogalactopyranoside together with 200 μM ZnSO4. The culture was grown at 18 °C for an additional 18 h and harvested by centrifugation at 5500g for 15 min. The cell pellet was resuspended in the lysis buffer (50 mM phosphate, 300 mM NaCl, 10% glycerol, and 20 mM imidazole at pH 8; 5 mL g^–1 bacterial pellet) and lysed by three passages through EmulsiFlex (Avestin). Cell lysates were centrifuged (15,000g at 4 °C for 20 min), and the fusion protein in the supernatant was purified via Ni-NTA chromatography. Fractions containing the His-MBP-HDAC6 fusion were concentrated to 2 mg mL^–1 and cleaved overnight by the addition of TEV protease (zHDAC6/TEV 1:20 ratio). The cleaved tag and the TEV protease were sequentially removed using amylose (New England Biolabs) and HisTrap columns (Cytiva), and zHDAC6 was further purified by size-exclusion chromatography on a HiLoad Superdex 75 pg column (GE Healthcare Bio-Sciences). Fractions containing zHDAC6 were pooled, concentrated to 10 mg mL^–1, flash-frozen in liquid nitrogen, and stored at −80 °C. The purity of protein preparations was monitored by SDS-PAGE (Figure S2).
The zHDAC6 mutants (Y745F and H574A) were constructed using the Quick-change site-directed mutagenesis protocol with the pEC566-zHDAC6 expression plasmid as a template. Both mutants were expressed and purified as described above for wild-type zHDAC6 (Figure S2).
as §1

One may read the IC50 as the concentration that gives 50% inhibition. Read a low IC50 as greater potency. In the case of `Cc1nnc(-c2ccc(CN(c3cccc(Cl)c3)S(C)(=O)=O)nc2)o1` [compound 10], on HDAC6, the IC50 is > 100 µM.
As to `CS(=O)(=O)N(Cc1ccc(-c2nnc(CF)o2)cn1)c1cccc(Cl)c1` [compound 9], the IC50 against zHDAC6 (Y745F) was > 20 µM; at HDAC6 it was 0.085 ± 0.0028 µM.
